The subject of one test is Carausius morosus. The settings on record: in vivo bioassay, stick insect; cited from earlier work. From the text: C. morusus produces decapeptide AKHs that function optimally via the Carmo-AKHR. Two shorter bioanalogs with high identity to Carmo-HrTH were available for testing in the receptor activation assay: Triin-AKH, an amidated nonapeptide that ends in Gly^9 and the amidated octapeptide, Peram-CAH-II that ends in Trp^8. These peptides produced receptor activation curves with EC50 values similar to those of the endogenous AKH peptides ( Table 2 ). Taken on its own, this may indicate that the C-terminal amino acids of Carmo-HrTH (thus Thr^10 and Gly^9) are not critical for activation of Carmo-AKHR, and ... || Replacing the aromatic amino acids, Phe^4 or Trp^8 that are iconic for most natural members of the AKH family, with a nonpolar amino acid like Ala, completely abolished receptor activation in the current in vitro study. Earlier in vivo investigations on L. migratoria ([58]), as well as AKH/RPCH ligand-receptor model studies on S. gregaria and D. pulex made it clear that these two aromatic residues are critical for receptor binding ([55], [56]). […] Clearly, this position in the AKH ligand appear ...

For test [1], the system named is Carausius morosus AKH receptor (Carmo-AKHR). In words: Calcium bioluminescence (aequorin) reporter assay, CHO-K1 cells stably expressing Carmo-AKHR. Format: cell-based. Particulars: for EC50: CHO-K1 stably expressing Carmo-AKHR, transiently aequorin, luminescence measured 20 s, from dose-response activation curves, 3 to 4 independent biological replicates, normalized to ATP maximum, read-out: EC50 value; for Fold-reduction in activity (receptor activation relative to Carmo-HrTH-II): ratio of EC50 relative to Carmo-HrTH-II. As to the method:
Functional activation of Carmo-AKHR was carried out by following mammalian cell culture procedures as previously described ([20], [29]) with the following modifications. […] At 24 h post-transfection, cells were selected in DMEM:F12 media containing 10% heat-inactivated fetal bovine serum (Wisent, St. Bruno, QC), 1x antimycotic-antibiotic and 600 μg/mL geneticin (G418) until clonal recombinant cells were evident in transfected cells while no live cells were present in non-transfected CHO-K1 cells (control). Individual clonal recombinant colonies were seeded into separate wells of a 96 well cell-culture dish (Sarstedt Inc., Montreal, QC) and grown to confluence while maintaining geneticin selection. To identify clonal recombinant lines with optimal Carmo-AKHR activity yielding the greatest signal-to-noise ratio, individual clonal recombinant lines were assayed in the bioluminescence reporter assay as described previously ([30]). […] The recombinant cell line showing the optimal luminescent response with greatest signal-to-noise ratio was expanded for preparation of cryo-stocks and subsequent detailed investigation of receptor specificity. […] Bruno, QC), 250 μg/mL Geneticin (MilliporeSigma Canada Ltd., Oakville, ON) and 1X antimycotic-antibiotic (ThermoFisher Scientific, Whitby, ON). […] Transfection was completed with PolyJetTM DNA In Vitro Transfection Reagent (FroggaBio, Toronto, ON) following manufacturer recommendations for transfection of adherent cells. At 48 hours post-transfection, cells were detached from culture flasks using Dulbecco's PBS (Wisent, St. Bruno, QC) containing 5 mM Ethylenediaminetetraacetic acid (EDTA) and were prepared for the functional assay as previously described ([30]). […] Immediately after injection of the cells into each well, luminescence was measured for 20 s using a Synergy 2 Multi-Mode Microplate Reader (BioTek, Winooski, VT, USA). […] Data were analyzed using a one-way or two-way ANOVA and Tukey's multiple comparisons post-hoc test, with differences between treatments considered significant if p<0.05.
For orientation: Reporter assays use an easily measured gene product as a stand-in for the process of interest.

The subject of test [2] is endogenously expressed purinoceptors. In words: ATP positive control in the bioluminescence assay. It is filed as cell-based, Chinese hamster. Particulars: 50 μM ATP. As for the experimental part:
Synthetic peptide stocks of naturally-occurring AKH-related peptides [corazonin, adipokinetic hormone corazonin-like peptide (ACP)], alanine-substituted analogs of Carmo-HrTH-II, natural C. morosus AKH peptides, and several AKHs from other arthropod species in synthetic form were used for preparation of serial dilutions all of which were prepared in assay media (DMEM-F12 media containing 0.1% bovine serum albumin, 1X antimycotic-antibiotic) and loaded in triplicate or quadruplicate into 96-well white luminescence plates (Greiner Bio-One, Germany). Cells stably expressing Carmo-AKHR and transiently expressing aequorin were loaded with an automated injector unit into each individual well containing different test compounds at various concentrations, including assay media alone (negative control wells) and 50 μM ATP (positive control wells) acting on endogenously expressed purinoceptors ([34], [35]). Immediately after injection of the cells into each well, luminescence was measured for 20 s using a Synergy 2 Multi-Mode Microplate Reader (BioTek, Winooski, VT, USA). […] Data were analyzed using a one-way or two-way ANOVA and Tukey’s multiple comparisons post-hoc test, with differences between treatments considered significant if p<0.05.

For test [3], the system named is Carausius morosus AKH receptor (Carmo-AKHR). Format: cell-based. Particulars: transient Carmo-AKHR, co-expressing murine promiscuous G protein.

Each structure is given as a SMILES string. Several values for one entry are separate records, joined by “and”; a condition that tells them apart may be missing. Equal values may be shown once. Non-standard residues stand in square brackets, D forms with d. Residues, ends and D or L forms follow the SMILES beside them. pGlu = O=C1CC[C@@H](C(=O)O)N1

For the compound `CC(C)C[C@H](NC(=O)[C@@H]1CCC(=O)N1)C(=O)N[C@H](C(=O)N[C@@H](Cc1ccccc1)C(=O)N[C@H](C(=O)N1CCC[C@H]1C(=O)N[C@@H](CC(N)=O)C(=O)N[C@@H](Cc1c[nH]c2ccccc12)C(N)=O)[C@@H](C)O)[C@@H](C)O` [Peram-CAH-II] ([pGlu]LTFTPNW-NH2), the “Hypertrehalosemic effect in vivo (in words)” value (shortened to “Hypertrehalosemic effect”) with Carausius morosus is given as “only about a third of what the native decapeptide achieved”. For the same compound, in test [1], the EC50 (commonly the concentration giving half of the maximal effect) turned out to be 0.388 µM; the “Fold-reduction in activity (receptor activation relative to Carmo-HrTH-II)” value is 5 fold and 5.28 fold.
`Nc1ncnc2c1ncn2[C@@H]1O[C@H](COP(=O)(O)OP(=O)(O)OP(=O)(O)O)[C@@H](O)[C@H]1O` [ATP]: the Maximal luminescent response result in test [2] is “about 12 000”.
`CC(C)C[C@H](NC(=O)[C@@H]1CCC(=O)N1)C(=O)N[C@H](C(=O)N[C@@H](Cc1ccccc1)C(=O)N[C@H](C(=O)N1CCC[C@H]1C(=O)N[C@@H](CO)C(=O)N[C@@H](Cc1c[nH]c2ccccc12)C(N)=O)[C@@H](C)O)[C@@H](C)O` [Aedae-AKH] ([pGlu]LTFTPSW-NH2): the “Luminescence relative to assay media (BSA) alone” value in test [3] is recorded as ~ 3 fold. In addition, in test [1], the EC50 was 1.03 µM; the “Fold-reduction in activity (receptor activation relative to Carmo-HrTH-II)” value is 14 fold and 14.00 fold.
With `CC(C)C[C@H](NC(=O)[C@@H]1CCC(=O)N1)C(=O)N[C@H](C(=O)N[C@@H](Cc1ccccc1)C(=O)N[C@H](C(=O)N1CCC[C@H]1C(=O)N[C@@H](CC(N)=O)C(=O)N[C@@H](Cc1c[nH]c2ccccc12)C(=O)NCC(=O)N[C@@H](CO)C(N)=O)[C@@H](C)O)[C@@H](C)O` [Phyle-CC] ([pGlu]LTFTPNWGS-NH2), in the test on Carausius morosus, the “Hypertrehalosemic effect” value is “not at all (in vivo) affected”. Further, in test [1], the EC50 was found to be 0.018 µM and the “Fold-reduction in activity (receptor activation relative to Carmo-HrTH-II)” value stood at 0.24 fold.
Turning to `CC(C)C[C@H](NC(=O)[C@@H]1CCC(=O)N1)C(=O)N[C@@H](CC(N)=O)C(=O)N[C@@H](Cc1ccccc1)C(=O)N[C@H](C(=O)N1CCC[C@H]1C(=O)N[C@@H](CC(N)=O)C(=O)N[C@@H](Cc1c[nH]c2ccccc12)C(=O)NCC(=O)N[C@H](C(N)=O)[C@@H](C)O)[C@@H](C)O` [Locmi-AKH-I] ([pGlu]LNFTPNWGT-NH2), the “Hypertrehalosemic effect” value with Carausius morosus is “biological function is impaired”. For the same compound, in test [1], the EC50 turned out to be 4.14 µM.
In the case of `CC(C)C[C@H](NC(=O)[C@@H]1CCC(=O)N1)C(=O)N[C@@H](CC(N)=O)C(=O)N[C@@H](Cc1ccccc1)C(=O)N[C@H](C(=O)N1CCC[C@H]1C(=O)N[C@@H](CC(N)=O)C(=O)N[C@@H](Cc1c[nH]c2ccccc12)C(=O)NCC(=O)N[C@@H](CO)C(N)=O)[C@@H](C)O` [Phymo-AKH] ([pGlu]LNFTPNWGS-NH2), in the test on Carausius morosus, the “Hypertrehalosemic effect” value is reported as “absence of function in vivo”. In test [1], the EC50 is 5.05 µM and the “Fold-reduction in activity (receptor activation relative to Carmo-HrTH-II)” value is 68.66 fold.

The values are drawn from PMC12310481, “Sequence, characterization and pharmacological analyses of the adipokinetic hormone receptor in the stick insect, Carausius morosus” (Frontiers in Endocrinology, 2025).
